Measurements as given in patent publication US20070249555A1, “Use of Atp Analogues for Treatment of Cardiovascular Diseases” (INSTITUT NATIONAL DE LA SANTE ET DE LA RECHERCHE MEDICALE …, priority 2004, published 2007).

Experiments:
HepG2 cells = assay: TG-HDL2 internalization by HepG2 cells; assay type: cell-based, human; conditions: 10 min at 37° C.
Protocol: Cells were incubated for 10 minutes at 37° C. with 75 μg/ml^125I-TG-HDL2 without (control) or with apolipoprotein A-I 10 μg/ml (a), ADP 100 nM (b), AR-C69931MX 100 nM (c), ADP 100 nM+AR-C69931MX 100 nM (d), ADP 100 nM+[…] 100 μM (e), ADP 100 nM+MRS2179 10 μM (f). […] Internalization assays were performed as described in Guendouzi et al., (Biochemistry, 1998, 37: 14974-80) on HepG2 cells, obtained from the American Type Culture Collection ([…]). Cells were incubated for 10 minutes at 37° C. with 75 μg/ml of either ^125I-TG-HDL2, ^125I-HDL3 or ^125I-LDL. After washing and dissociation at 4° C. in phosphate buffered saline (PBS), cell radioactivity was determined using a Wallac 1261 multigamma apparatus. Prior experiments, cells were plated in polylysine-coated 24-multiwell plates (Falcon) at 4×10^4 cells per well. Cells were grown in Dulbecco's modified Eagles medium supplemented with 10% fetal calf serum, 100 units/ml penicillin, and 100 μg/ml streptomycin at 37° C. in a 5% CO2 and 95% air incubator. Medium was changed every 2 or 3 days, and the cells were subcultured every 7-8 days. Results are expressed as a percentage of internalization with respect to the control value (set at 0). Control corresponded to a basal value of internalization, amounting to 400 ng, 300 ng, 200 ng of TG-HDL2, HDL3 and LDL per mg of cells protein respectively for 10 minutes. Data as a mean ±SEM of at least 7, 5, 6 independent experiments, for TG-HDL2, HDL3 and LDL respectively.

human P2Y1 receptor = target: T1, human P2Y1 receptor (Homo sapiens, UniProt P47900); assay: TG-HDL2 internalization by HepG2 cells after P2Y1 receptor silencing by siRNA; assay type: cell-based; conditions: HepG2, pool of 4 P2Y1 siRNAs 100 nM, 48 h; apoA-I 10 μg/ml, ADP 100 nM, AR-C69931MX 100 nM
T1 construct: host or cells: HepG2
T1 sequence (P47900 whole entry): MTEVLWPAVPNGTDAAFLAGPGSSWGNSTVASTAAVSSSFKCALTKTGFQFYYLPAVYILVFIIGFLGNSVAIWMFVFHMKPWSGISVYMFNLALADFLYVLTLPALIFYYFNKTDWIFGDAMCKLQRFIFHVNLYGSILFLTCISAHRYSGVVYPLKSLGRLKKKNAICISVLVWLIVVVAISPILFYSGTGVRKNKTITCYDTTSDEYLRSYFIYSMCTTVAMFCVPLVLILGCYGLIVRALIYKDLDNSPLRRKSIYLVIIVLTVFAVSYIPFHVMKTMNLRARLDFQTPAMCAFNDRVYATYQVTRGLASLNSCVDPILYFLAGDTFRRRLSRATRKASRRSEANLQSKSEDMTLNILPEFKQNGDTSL
Protocol: HepG2 cells were transiently transfected with siRNA designated to human P2Y1 receptor (columns d, e, f, g) or with non specific siRNA as control (a, b, c). 48 hours later, cells were incubated for 10 minutes at 37° C. with 75 μg/ml ^125I-TG HDL2 without (control) or with apolipoprotein A-I 10 μg/ml (a and d), ADP 100 nM (b and e), AR-C69931MX 100 nM (c and f), PBS (g). Data are expressed as a percentage of internalized radioactivity with respect to the control value (set as 0) (n>5); (*) p<0.05 (unpaired t-test).
(§1) Internalization assays were performed as described in Guendouzi et al., (Biochemistry, 1998, 37: 14974-80) on HepG2 cells, obtained from the American Type Culture Collection ([…]). Cells were incubated for 10 minutes at 37° C. with 75 μg/ml of either ^125I-TG-HDL2, ^125I-HDL3 or ^125I-LDL. After washing and dissociation at 4° C. in phosphate buffered saline (PBS), cell radioactivity was determined using a Wallac 1261 multigamma apparatus.
The silencing of the different P2Y receptors were carried-out using the siRNA technique. The siRNA sequenced targeting human P2Y13 receptor (Gene Bank GB/EMBL/DDBJ accession number AF295368) was from position 406 or 359 relative to the start codon. The siRNA duplex (21-nt-RNAs) in deprotected and desalted form, the siRNA targeting human P2Y1 receptor (a mix of 4 siRNAs, M-005689), and the non-specific control siRNA (D-001206-01) were purchased from Dharmacon Inc. Subconfluent HepG2 cells were transiently transfected with siRNAs (final concentration, 100 nM) using Oligofectamine™ according to the manufacturer's protocole (Invitrogen). Cells were usually assayed 48 hours after transfection. Specific silencing effect was confirmed by at least three independent experiments.
Results are expressed as a percentage of internalization with respect to the control value (set at 0). Control corresponded to a basal value of internalization, amounting to 400 ng, 300 ng, 200 ng of TG-HDL2, HDL3 and LDL per mg of cells protein respectively for 10 minutes. […]

human P2Y13 receptor = target: T2, human P2Y13 receptor (Homo sapiens, UniProt Q9BPV8); assay: HDL3 internalization by HepG2 cells after P2Y13 receptor silencing by siRNA; assay type: cell-based; conditions: 75 μg/ml 125I-HDL3, ADP 100 nM, AR-C69931MX 100 nM
T2 construct: host or cells: HepG2
T2 sequence (Q9BPV8 1-354): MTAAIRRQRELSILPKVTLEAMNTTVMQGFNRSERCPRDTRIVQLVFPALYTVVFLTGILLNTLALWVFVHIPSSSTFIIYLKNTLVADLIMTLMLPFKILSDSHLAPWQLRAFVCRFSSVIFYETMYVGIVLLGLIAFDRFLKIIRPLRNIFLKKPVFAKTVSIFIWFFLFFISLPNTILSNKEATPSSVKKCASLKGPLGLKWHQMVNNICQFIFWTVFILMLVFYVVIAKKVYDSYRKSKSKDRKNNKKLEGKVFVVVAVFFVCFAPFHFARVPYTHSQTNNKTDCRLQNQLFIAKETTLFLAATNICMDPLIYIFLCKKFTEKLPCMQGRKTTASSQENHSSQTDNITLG
Protocol: Cells were transiently transfected with siRNA designated to human P2Y13 receptor (column c, d, e). 48 hours later, cells were incubated for 10 minutes at 37° C. with 75 μg/ml ^125I-HDL3 without (control) or with ADP 100 nM (a and c), AR-C69931MX 100 nM (b and d), PBS (e) (n>5); (*) p<0.05 (unpaired t-test).
as §1
The silencing of the different P2Y receptors were carried-out using the siRNA technique. The siRNA sequenced targeting human P2Y13 receptor (Gene Bank GB/EMBL/DDBJ accession number AF295368) was from position 406 or 359 relative to the start codon. […]
Results are expressed as a percentage of internalization with respect to the control value (set at 0). […]

plain CHO-K1 cells = assay: forskolin-induced cAMP accumulation in plain CHO-K1 cells (control); assay type: cell-based; conditions: untransfected control cells
human P2Y12 receptor = human P2Y12 receptor (Homo sapiens, UniProt Q9H244); assay: forskolin-induced cAMP formation in hP2Y12-CHO-K1 cells; assay type: cell-based
Sequence of human P2Y12 receptor (Q9H244 whole entry): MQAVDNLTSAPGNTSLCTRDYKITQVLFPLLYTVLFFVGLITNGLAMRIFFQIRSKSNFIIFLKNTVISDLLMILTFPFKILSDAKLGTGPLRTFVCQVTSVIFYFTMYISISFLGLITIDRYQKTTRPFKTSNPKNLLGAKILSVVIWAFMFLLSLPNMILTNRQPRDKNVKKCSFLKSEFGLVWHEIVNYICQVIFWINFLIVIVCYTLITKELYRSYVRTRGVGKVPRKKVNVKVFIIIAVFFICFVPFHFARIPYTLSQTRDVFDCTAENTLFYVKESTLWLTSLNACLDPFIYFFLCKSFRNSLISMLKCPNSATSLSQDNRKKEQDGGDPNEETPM
Protocol: FIG. 2C: Effect ADP (▴), AR-C69931MX (●) and ADP in presence of AR-C69931MX (100 nM) (▪) on forskolin (FSK: 3 μM)-induced cAMP formation in hP2Y12-CHO-K1 cells. The cells were incubated with various concentrations of these agents for 12 min. Data are expressed in % of the value with forskolin alone and presented as mean ±S.E.M. of 3 (ADP) or 2 (AR-C69931MX) independent experiments, each performed in triplicates.
The cyclic AMP assays was performed on CHO-K1 cell lines expressing recombinant P2Y receptors as follows.
The plasmid of human P2Y12 receptor (hP2Y12-pEFIN5) was obtained from Euroscreen (Gosselies, Belgium) and was stably transfected into CHO-K1 cells by using the FuGENETM6 transfection reagent (Roche Applied Science, Mannheim, Germany). Transfected cells were selected using G418 (400 μg/ml). The hP2Y13-CHO-K1 and HP2Y12-CHO-K1 cells were grown in Ham'S F12 cell culture medium (Invitrogen-France) supplemented with fetal bovine serum (10%, v/v), penicillin (100 units/ml), streptomycin (100 μg/ml) and G418 (400 μg/ml).
The stably transfected CHO-K1 cells (200,000 cells/dish) were seeded on 35-mm diameter cell culture dishes in complete medium one day before the experiment. […] Cyclic AMP was quantified by 125l radioimmunoassay, as described in Communi et al., J Biol Chem, 2001, 276: 41479-85.

effect per se on cAMP accumulation by forskolin (human P2Y12 receptor; forskolin 3 μM, 12 min)	Compound	internalization of 125I-TG-HDL2 by HepG2 cells, increase above control cells (HepG2 cells; 75 μg/ml 125I-TG-HDL2, apoA-I 10 μg/ml, ADP 100 nM, AR-C69931MX 100 nM alone) [%]	effect of P2Y1 receptors silencing on the stimulation of TG-HDL2 endocytosis (human P2Y1 receptor)	effect of P2Y13 receptor silencing on HDL3 internalization after stimulation (human P2Y13 receptor)	effect on cAMP accumulation in plain CHO-K1 cells (plain CHO-K1 cells)	ADP-dependent TG-HDL2 internalization, increase above control cells (HepG2 cells; ADP 100 nM + AR-C69931MX 100 nM)	effect on ADP inhibition of cAMP accumulation (human P2Y12 receptor; AR-C69931MX 100 nM with ADP)
–	Nc1ncnc2c1ncn2[C@@H]1O[C@H](COP(=O)(O)OP(=O)(O)O)[C@@H](O)[C@H]1O [ADP, adenosine diphosphate, reference compound]	20	no effect	strong inhibition	–	–	–
no effect	CSCCNc1nc(SCCC(F)(F)F)nc2c1ncn2[C@@H]1O[C@H](COP(=O)(O)OP(=O)(O)C(Cl)(Cl)P(=O)(O)O)[C@@H](O)[C@H]1O [AR-C69931MX, N-[2-(methylthio)ethyl]-2-[(3,3,3-trifluoropropyl)thio]-5′-adenylic acid, monoanhydride with dichloromethylenebisphosphonic acid]	–	no effect	strong inhibition	no effect	over 30%	shifted the ADP inhibition to higher concentrations
